According to the Kinase Knowledgebase extract (Sharma et al. 2016):

Target: PIK3CG (human) (UniProt P48736)
Assay: Inhibition of PIK3CG Kinase Activity

Sequence of PIK3CG (human) (P48736 whole entry, looked up): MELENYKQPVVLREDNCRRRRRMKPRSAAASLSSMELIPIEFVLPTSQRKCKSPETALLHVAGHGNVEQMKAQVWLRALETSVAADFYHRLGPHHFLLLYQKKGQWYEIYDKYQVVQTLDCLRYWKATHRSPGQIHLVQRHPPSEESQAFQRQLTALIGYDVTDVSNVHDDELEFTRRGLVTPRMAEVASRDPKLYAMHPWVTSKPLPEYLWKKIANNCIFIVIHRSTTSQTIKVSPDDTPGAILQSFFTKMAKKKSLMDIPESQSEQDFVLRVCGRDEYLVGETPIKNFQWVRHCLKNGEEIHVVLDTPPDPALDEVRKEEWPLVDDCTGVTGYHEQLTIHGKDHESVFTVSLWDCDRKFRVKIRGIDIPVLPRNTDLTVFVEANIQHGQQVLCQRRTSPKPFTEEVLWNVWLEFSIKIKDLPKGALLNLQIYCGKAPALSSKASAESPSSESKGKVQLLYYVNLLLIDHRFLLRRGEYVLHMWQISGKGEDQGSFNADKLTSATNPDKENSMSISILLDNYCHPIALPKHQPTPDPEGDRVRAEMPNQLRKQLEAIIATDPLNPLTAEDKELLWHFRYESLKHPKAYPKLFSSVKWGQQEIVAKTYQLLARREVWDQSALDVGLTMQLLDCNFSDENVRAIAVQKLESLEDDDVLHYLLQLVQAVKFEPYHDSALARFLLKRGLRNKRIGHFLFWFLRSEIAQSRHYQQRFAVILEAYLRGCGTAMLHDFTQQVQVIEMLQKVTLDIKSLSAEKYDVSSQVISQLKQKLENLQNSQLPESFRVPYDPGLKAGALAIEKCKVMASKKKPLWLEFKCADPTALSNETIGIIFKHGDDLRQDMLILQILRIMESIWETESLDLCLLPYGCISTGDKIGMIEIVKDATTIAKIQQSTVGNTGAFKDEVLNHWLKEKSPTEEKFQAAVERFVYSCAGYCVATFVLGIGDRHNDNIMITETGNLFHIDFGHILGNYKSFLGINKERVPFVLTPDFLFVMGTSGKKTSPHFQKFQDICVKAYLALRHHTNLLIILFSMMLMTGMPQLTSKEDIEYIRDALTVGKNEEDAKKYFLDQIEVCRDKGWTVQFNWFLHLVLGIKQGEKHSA

IC50, < 600 nM:
CC(=O)Nc1nc2c(s1)-c1c(c(C3CC3)nn1-c1ccc(C(=O)N3CCC(N4CCCC4)CC3)c(Cl)c1)CC2
CC(=O)Nc1nc2c(s1)-c1c(c(C3CC3)nn1-c1ccc(C(=O)N[C@@H]3CCN(CC4CCCC4)C3)c(F)c1)CC2
CC(=O)Nc1nc2c(s1)-c1c(c(C3CC3)nn1-c1ccc(C(=O)N[C@H]3CC[C@@H](N4CCCCC4)CC3)c(F)c1)CC2
CC(=O)Nc1nc2c(s1)-c1c(c(C3CC3)nn1-c1ccc(C(=O)N(C)[C@@H]3CCN(C4CCCC4)C3)c(C)c1)CC2
CC(=O)Nc1nc2c(s1)-c1c(c(C3CC3)nn1-c1ccc(NCC3CCN(C(=O)OC(C)(C)C)CC3)cc1Cl)CC2
CC(=O)Nc1nc2c(s1)-c1c(c(C3CC3)nn1-c1ccc(C(=O)NC3CCN(C4CCCCC4)CC3)cc1C)CC2
CC(=O)Nc1nc2c(s1)-c1c(c(C3CC3)nn1-c1ccc(C(=O)N[C@@H]3CCN(C4CCCCC4)C3)c(C)c1)CC2
COc1cc(-n2nc(C3CC3)c3c2-c2sc(NC(C)=O)nc2CC3)ccc1C(=O)NC1CCN(C2CCCC2)CC1
CC(=O)Nc1nc2c(s1)-c1c(c(C3CCC3)nn1-c1ccc(C(=O)NC3CCN(C(C)C)CC3)cc1Cl)CC2
CC(=O)Nc1nc2c(s1)-c1c(c(C3CCCC3)nn1-c1ccc(C(=O)NC3CCN(C(C)C)CC3)cc1Cl)CC2
CC(=O)Nc1nc2c(s1)-c1c(c(C3CC3)nn1-c1ccc(C(=O)N(C)[C@H]3CCN(C4CCCCC4)C3)cc1C)CC2
CC(=O)Nc1nc2c(s1)-c1c(c(C3CC3)nn1-c1ccc(N)c(Cl)c1)CC2
CC(=O)Nc1nc2c(s1)-c1c(c(C3CC3)nn1-c1ccc(CC(N)=O)cc1Cl)CC2
CC(=O)Nc1nc2c(s1)-c1c(c(C3CCC3)nn1-c1ccc(C(=O)NC3CCN(C)CC3)cc1Cl)CC2
CCCN1CC[C@@H](NC(=O)c2ccc(-n3nc(C4CC4)c4c3-c3sc(NC(C)=O)nc3CC4)cc2Cl)C1
CC(=O)Nc1nc2c(s1)-c1c(c(C3CC3)nn1-c1ccc(C(=O)N[C@@H]3CCN(CC4CCCC4)C3)cc1C)CC2
CC(=O)Nc1nc2c(s1)-c1c(c(C3CC3)nn1-c1ccc(NCC3CCCCC3)cc1Cl)CC2
CC(=O)Nc1nc2c(s1)-c1c(c(C3CC3)nn1-c1ccc(CC(=O)NC3CCN(C4CCCC4)CC3)cc1Cl)CC2
CC(=O)Nc1nc2c(s1)-c1c(c(C3CC3)nn1-c1ccc(C(=O)NC[C@@H]3CCCN3CC3CCCC3)c(Cl)c1)CC2
CC(=O)Nc1nc2c(s1)-c1c(c(C3CC3)nn1-c1ccc(C(=O)NCC3CCN(C4CCCC4)CC3)cc1Cl)CC2
CC(=O)Nc1nc2c(s1)-c1c(c(C3CC3)nn1C1CCN(C(=O)C3CCN(C4CCCC4)CC3)CC1)CC2
CC(=O)Nc1nc2c(s1)-c1c(c(C3CC3)nn1-c1ccc(C(=O)NC3CCN(CC4CCCC4)CC3)cc1Cl)CC2
CC(=O)Nc1nc2c(s1)-c1c(c(C3CC3)nn1-c1ccc(C(=O)N(C)[C@H]3CCN(C4CCCCC4)C3)c(C)c1)CC2
CC(=O)Nc1nc2c(s1)-c1c(c(C3CC3)nn1-c1ccc(C(=O)N(C)[C@H]3CCN(C4CCCCC4)C3)c(Cl)c1)CC2
CC(=O)Nc1nc2c(s1)-c1c(c(C3CC3)nn1C1CCN(C(=O)C3CCN(CC4CCCCC4)CC3)CC1)CC2
CC(=O)Nc1nc2c(s1)-c1c(c(C3CC3)nn1-c1ccc(CC(=O)N[C@H]3CC[C@@H](N4CCCC4)CC3)cc1Cl)CC2
CC(=O)Nc1nc2c(s1)-c1c(c(C3CC3)nn1-c1ccc(C(=O)NC3CCN(C4CCOCC4)CC3)cc1F)CC2
CC(=O)Nc1nc2c(s1)-c1c(c(C3CC3)nn1-c1ccc(C(=O)N[C@H]3CC[C@@H](N4CCOCC4)CC3)cc1C)CC2
CCN(CC)CCN1CCN(C(=O)c2ccc(-n3nc(C4CC4)c4c3-c3sc(NC(C)=O)nc3CC4)cc2Cl)CC1
CCCN1CCC(NC(=O)c2ccc(-n3nc(C4CC4)c4c3-c3sc(NC(C)=O)nc3CC4)c(F)c2)CC1
CC(=O)Nc1nc2c(s1)-c1c(c(C3CC3)nn1C1CCC(C(=O)N(C)[C@H]3CC[C@@H](N4CCCC4)CC3)CC1)CC2 (some centres undefined)
CC(=O)Nc1nc2c(s1)-c1c(c(C3CC3)nn1-c1ccc(C(=O)N(C)CC3CCN(CC4CCCC4)CC3)c(Cl)c1)CC2
CC(=O)Nc1nc2c(s1)-c1c(c(C3CCC3)nn1-c1ccc(C(=O)N[C@H]3CC[C@@H](N4CCCCC4)CC3)cc1Cl)CC2
CC(=O)Nc1nc2c(s1)-c1c(c(C3CC3)nn1-c1ccc(C(=O)N[C@H]3CCN(C4CCCCC4)C3)cc1F)CC2
CC(=O)Nc1nc2c(s1)-c1c(c(C3CC3)nn1-c1ccc(C(=O)NCC3CCN(C4CCCC4)CC3)c(Cl)c1)CC2
CC(=O)Nc1nc2c(s1)-c1c(c(C3CC3)nn1-c1ccc(C(=O)N3CCN(C4CCCC4)CC3)c(Cl)c1)CC2
CC(=O)Nc1nc2c(s1)-c1c(c(C3CC3)nn1-c1ccc(C(=O)N(C)[C@H]3CC[C@@H](N4CCCCC4)CC3)c(C)c1)CC2
CC(=O)Nc1nc2c(s1)-c1c(c(C3CC3)nn1-c1ccc(C(=O)N[C@H]3CC[C@@H](N4CCCC4)CC3)cc1C)CC2
CC(=O)Nc1nc2c(s1)-c1c(c(C3CC3)nn1-c1ccc(C(=O)NC3CCN(C4CCCC4)CC3)cc1F)CC2
CC(=O)Nc1nc2c(s1)-c1c(c(C3CC3)nn1-c1ccc(C(=O)N(C)C)cc1Cl)CC2
CNc1ccc(-n2nc(C3CC3)c3c2-c2sc(NC(C)=O)nc2CC3)c(Cl)c1
CC(=O)Nc1nc2c(s1)-c1c(c(C3CC3)nn1-c1ccc(C(=O)N(C)[C@@H]3CCN(C4CCCC4)C3)cc1F)CC2
CC(=O)Nc1nc2c(s1)-c1c(c(C3CC3)nn1-c1ccc(C(=O)N(C)CC3CCN(C4CCCC4)CC3)c(Cl)c1)CC2
CC(=O)Nc1nc2c(s1)-c1c(c(C3CC3)nn1-c1ccc(C(=O)N[C@H]3CC[C@@H](N4CCCCC4)CC3)cc1F)CC2
CNC(=O)Cc1ccc(-n2nc(C3CC3)c3c2-c2sc(NC(C)=O)nc2CC3)c(Cl)c1
CC(=O)Nc1nc2c(s1)-c1c(c(C3CC3)nn1-c1ccc(CC(=O)N(C)[C@H]3CC[C@@H](N4CCCC4)CC3)cc1Cl)CC2
CCCN1CCC(NC(=O)c2ccc(-n3nc(C4CC4)c4c3-c3sc(NC(C)=O)nc3CC4)cc2Cl)CC1
COc1cc(-n2nc(C3CC3)c3c2-c2sc(NC(C)=O)nc2CC3)ccc1C(=O)N1CCC(N(C)C2CCCC2)CC1
CC(=O)Nc1nc2c(s1)-c1c(c(C3CC3)nn1C1CCC(C(=O)N(C)[C@H]3CC[C@H](N4CCCC4)CC3)CC1)CC2 (some centres undefined)
CC(=O)Nc1nc2c(s1)-c1c(c(C3CC3)nn1-c1ccc(CC(=O)N[C@@H]3CCN(C4CCCC4)C3)cc1Cl)CC2
CC(=O)Nc1nc2c(s1)-c1c(c(C3CC3)nn1-c1ccc(C(=O)NC3CCN(CC4CCCC4)CC3)c(Cl)c1)CC2
CCCN1CCC(NC(=O)c2ccc(-n3nc(C4CC4)c4c3-c3sc(NC(C)=O)nc3CC4)cc2F)CC1
CC(=O)Nc1nc2c(s1)-c1c(c(C3CC3)nn1-c1ccc(C(=O)N(C)[C@@H]3CCN(CC4CCCC4)C3)cc1C)CC2
CCN(C(=O)c1ccc(-n2nc(C3CC3)c3c2-c2sc(NC(C)=O)nc2CC3)cc1Cl)[C@H]1CC[C@@H](N2CCCC2)CC1
CCCN1CCC(CNc2ccc(-n3nc(C4CC4)c4c3-c3sc(NC(C)=O)nc3CC4)c(Cl)c2)CC1
CC(=O)Nc1nc2c(s1)-c1c(c(C3CC3)nn1C1CCN(C(=O)N3CCN(C(C)C)CC3)CC1)CC2
CC(=O)Nc1nc2c(s1)-c1c(c(C3CC3)nn1-c1ccc(C(=O)NC[C@H]3CCN(CC4CCCC4)C3)c(Cl)c1)CC2
CC(=O)Nc1nc2c(s1)-c1c(c(C3(C)CC3)nn1-c1ccc(C(=O)NC3CCN(C4CCOCC4)CC3)cc1Cl)CC2
CC(=O)Nc1nc2c(s1)-c1c(c(C3CC3)nn1-c1ccc(NCC3CCN(C)CC3)cc1Cl)CC2
CC(=O)Nc1nc2c(s1)-c1c(c(C3CC3)nn1-c1ccc(N(C)C(=O)C3CCN(C4CCCC4)CC3)cc1Cl)CC2
CC(=O)Nc1nc2c(s1)-c1c(c(C3CC3)nn1-c1ccc(C(=O)N(C)[C@H]3CC[C@@H](N(C)CC4CC4)CC3)cc1Cl)CC2
CC(=O)Nc1nc2c(s1)-c1c(c(C3CC3)nn1-c1ccccc1Br)CC2
CCCN1CC[C@@H](NC(=O)c2ccc(-n3nc(C4CC4)c4c3-c3sc(NC(C)=O)nc3CC4)cc2F)C1
CC(=O)Nc1nc2c(s1)-c1c(c(C3CC3)nn1-c1ccc(C(=O)N[C@@H]3CCN(C4CCCC4)C3)c(C)c1)CC2
CC(=O)Nc1nc2c(s1)-c1c(c(C3CC3)nn1-c1ccc(C(=O)NC3CCN(CC4CCCC4)CC3)cc1F)CC2
CC(=O)Nc1nc2c(s1)-c1c(c(C3CC3)nn1-c1ccc(C(=O)N[C@H]3CC[C@@H](N(C)CC4CC4)CC3)cc1Cl)CC2
CC(=O)Nc1nc2c(s1)-c1c(c(C3CCCC3)nn1-c1ccc(C(=O)N[C@H]3CC[C@@H](N4CCCCC4)CC3)cc1Cl)CC2
CC(=O)Nc1nc2c(s1)-c1c(c(C3CC3)nn1-c1ccc(C(=O)N[C@H]3CC[C@@H](N(C)CC4CCCC4)CC3)c(C)c1)CC2
CC(=O)Nc1nc2c(s1)-c1c(c(C3CC3)nn1-c1ccc(N(C)C(=O)[C@H]3CC[C@@H](N4CCCC4)CC3)cc1Cl)CC2
CC(=O)Nc1nc2c(s1)-c1c(c(C3CC3)nn1-c1ccc(C(=O)N(C)C3CCC(N(C)CC4CCCC4)CC3)c(F)c1)CC2 (centres undefined)
CC(=O)Nc1nc2c(s1)-c1c(c(C3CC3)nn1-c1ccc(C(=O)N[C@@H]3CCN(C4CCCCC4)C3)cc1C)CC2
CCCN1CCC(NC(=O)c2ccc(-n3nc(C4CC4)c4c3-c3sc(NC(C)=O)nc3CC4)c(Cl)c2)CC1
CC(=O)Nc1nc2c(s1)-c1c(c(C3CC3)nn1-c1ccc(C(=O)NC[C@@H]3CCCN3C3CCCC3)c(Cl)c1)CC2
CC(=O)Nc1nc2c(s1)-c1c(c(C3CC3)nn1C1CCN(C(=O)C3CCN(CC4CCCC4)CC3)CC1)CC2
